Measured values published in PubChem BioAssay (NCI).
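Briefly, cells in 96-well plates were exposed to five compound concentrations for 48 h, and endpoints were estimated by linear interpolation. TGI: concentration producing complete growth inhibition.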

Assays:
Experiment in all cases: DTP human tumour cell line panel, 48 h
UO-31 renal = system: UO-31 renal
IGROV1 ovarian = system: IGROV1 ovarian
NCI-H460 lung = system: NCI-H460 lung
SNB-19 CNS = system: SNB-19 CNS
ACHN renal = system: ACHN renal
SK-MEL-28 melanoma = system: SK-MEL-28 melanoma
SN12C renal = system: SN12C renal
RXF 393 renal = system: RXF 393 renal
MDA-N = system: MDA-N
BT-549 breast = system: BT-549 breast
MDA-MB-435 = system: MDA-MB-435

| Structure (SMILES) | TGI (UO-31 renal) [µM] | TGI (IGROV1 ovarian) [µM] | TGI (NCI-H460 lung) [µM] | TGI (SNB-19 CNS) [µM] | TGI (ACHN renal) [µM] | TGI (SK-MEL-28 melanoma) [µM] | TGI (SN12C renal) [µM] | TGI (RXF 393 renal) [µM] | TGI (MDA-N) [µM] | TGI (BT-549 breast) [µM] | TGI (MDA-MB-435) [µM] |
| --- | --- | --- | --- | --- | --- | --- | --- | --- | --- | --- | --- |
| c1ccc2c(c1)OCCOCCOc1ccccc1OCCO2 | > 100 | > 100 | > 100 | > 100 | > 100 | > 100 | > 100 | > 100 | – | – | – |
| COc1ccc2nc3cc(Cl)ccc3c(Sc3ccc(NC(C)=O)cc3)c2c1 | > 33.4 | > 56 | > 47 | > 26.4 | 18.7 | 38.7 | > 25.6 | > 27.9 | – | – | – |
| Cc1cc(C)nc(NC(P(=O)(O)O)P(=O)(O)O)n1 | > 100 | > 100 | > 100 | > 100 | > 100 | – | – | > 100 | > 100 | > 100 | – |
| CC(=O)OCCOCNC(=S)N/N=C/c1ccc([N+](=O)[O-])s1 | > 100 | > 100 | > 100 | > 100 | > 100 | > 100 | > 100 | > 100 | – | – | – |
| CC(=O)Nc1c(C(=N)C#N)ncn1CCO | – | > 100 | > 100 | > 100 | > 100 | > 100 | > 100 | > 100 | > 100 | – | > 100 |
| CCOC(=O)CCC(NC(=O)c1ccc(NCc2ccc3nc(-c4ccccc4)c(Cl)nc3c2)cc1)C(=O)OCC (configuration not stated) | 65.8 | > 100 | > 100 | > 100 | > 100 | – | > 100 | > 100 | – | – | – |
| Nc1c(S(=O)(=O)c2ccccc2)c2nc3ccccc3nc2n2c1nc1ccccc12 | > 100 | 98.9 | > 100 | > 93.2 | > 100 | > 62.3 | > 87.2 | > 100 | – | – | – |
| C[n+]1c2ccccc2c(NC(CCCN=C(N)N)C(=O)O)c2ccccc21 (configuration not stated) | > 100 | > 100 | > 100 | > 100 | > 100 | – | > 100 | > 100 | – | – | – |
| N/C(=N\S(=O)(=O)c1ccc(-c2ncccc2C(F)(F)F)s1)Nc1ccc(Cl)cc1 | 38.4 | 27.8 | 25.9 | 34.4 | 30 | 34.4 | 38.3 | 41.5 | – | 29 | – |
